Source: patent publication US20260284082A1, “TARGETING THE PANX1-P2Y2R-TRPV4 PATHWAY TO TREAT LUNG ISCHEMIA-REPERFUSION INJURY” (UNIVERSITY OF VIRGINIA PATENT FOUNDATION, priority 2023, published 2026)

System: porcine transplantation model of lung IRI
Assay: Porcine left lung transplant model of lung IRI
Format: in vivo, swine
Settings: for left lung-specific PaO2/FiO2 ratio: 1 mg/kg i.v., mean±SD
Experimental: The University of Virginia's Animal Care and Use Committee approved this study, protocol 4262 (approved 10/23/2021). All procedures were performed in compliance with the National Institutes of Health 1996 Guide for the Care and Use of Laboratory Animals. Ten farm-raised, domestic swine of both sexes (31.6-60.0 kg weight range) were utilized. Animals were randomized to one of two groups (n=5/group). […] GSK219 or vehicle was administered as a systemic, intravenous infusion (100 ml volume over a 30-min period via central venous line placed in the left external jugular vein) beginning after the recipient animal's left pulmonary artery (PA) was clamped (i.e. at the time of recipient lung explant; approximately 40 min prior to initiation of graft reperfusion). All infusions were completed prior to reperfusion of the implanted lung.
A porcine left lung transplant model was utilized as previously described by our laboratory^18, with modifications as described here. On day 1, the donor animal was sedated and intubated. General anesthesia was maintained while animals were ventilated with 100% oxygen to measure baseline parameters. Lungs were ventilated to a tidal volume of 8.0 mL/kg with a respiratory rate of 22 breaths/min and a positive end-expiratory pressure of 5.0 cm H2O. Intravenous heparin (200 IU/kg, APP Pharmaceuticals, Schaumburg, IL) was administered.
Donor animals underwent a median sternotomy and pericardiotomy to expose the heart, great vessels, and lungs. Prostaglandin E1 ([…], Pfizer, New York, NY) was injected into the main PA. […] The lungs were then flushed with 1 L room temperature heparinized Perfadex (XVIVO Perfusion. Inc, Englewood, CO; 10,000 IU heparin per liter) via the cardioplegia cannula. At this point the lungs underwent 30 min of warm ischemia. At the conclusion of warm ischemia, the thoracic cavity was filled with cold (4° C.) slush, and lungs were flushed with an additional 1 L cold Perfadex via the main PA. At mid-inspiration, the trachea was clamped, and the heart-lung bloc was explanted. The lungs were then flushed retrograde with an additional IL cold Perfadex and placed in 4° C. cold storage for 24 hrs.
On day 2, recipient animals were anesthetized and ventilated as above for donor animals. A left thoracotomy was performed. and the left lung hilum was exposed. Central arterial and venous access was obtained for monitoring. Left pneumonectomy and left lung transplantation were performed as previously described.^18 Lung function was monitored during 4 hours of reperfusion while the left thoracotomy remained open. Combined (left and right) lung compliance was monitored throughout reperfusion. Airway pressure measurements and partial pressure of arterial oxygen (PaO2; systemic arterial as well as direct left pulmonary vein samples for graft-specific oxygenation) were obtained after 15 minutes, 1 hour and hourly thereafter. […] PaO2, PaCO2, and pH were measured using an i-STAT handheld blood analyzer (Abbott Point of Care, Princeton, NJ). After 4 hours of reperfusion, the animal was euthanized, and the heart-lung bloc was excised.
After completion of reperfusion, small peripheral samples of the transplanted left lungs were tied off, and fresh tissue samples were collected from the left upper lobe, the left lingula, and left lower lobe. The same surgeon collected all samples from consistent, peripheral, dependent locations of each lobe in all animals. These samples were either used fresh or flash-frozen in liquid nitrogen and stored at −80° C.
Fresh lung samples were patted dry, weighed, and dried in a vacuum oven at 56° C. until the weight stabilized (typically 3-4 days). Lung wet/dry weight ratios were then calculated to assess edema.
After collection of fresh lung samples, the left upper lobe was lavaged using 40 ml normal saline. Total cell counts and differential cell counts in BAL fluid were performed by the University of Virginia Clinical Laboratory in a blinded fashion. […]

[1] = after 4 hours of reperfusion, vs vehicle
[2] = after reperfusion, vs vehicle, P<0.05
[3] = after reperfusion, vs vehicle, trended lower

SMILES: O=C(NC1(c2ccccc2)CC1)c1c(CN2CCC(N3CCCCC3)CC2)c(-c2cccc(C(F)(F)F)c2)nc2cc(Br)ccc12 [GSK219, GSK2193874]
- adverse effects of administration (1 mg/kg i.v. infusion over 30 min to recipient, 4 h reperfusion): no adverse effects
- left lung-specific PaO2/FiO2 ratio (3 hours of reperfusion, vehicle 85.4±17.2, P=0.026): 276±57 mmHg
- left lung-specific PaO2/FiO2 ratio (4 hours of reperfusion, vehicle 104±28.6, P=0.003): 303±37 mmHg
- left lung wet/dry weight ratios [1]: no significant differences
- overall lung histology by H&E staining [1]: significantly improved
- wet/dry weight ratios of the left lingula and left lower lobe [1]: trend lower
- neutrophils in BAL fluid (percent of total cells, differential cell count) (after reperfusion, vehicle 80.2±1.4%, P=0.004): 61.8±4.4%
- Ang-2 in plasma (after reperfusion, vs vehicle): significantly reduced
- HMGB1 in BAL fluid (after reperfusion, vs vehicle): significantly reduced
- ICAM-1 in plasma (after reperfusion, vs vehicle): not significantly different
- IL-1β in BAL fluid (after reperfusion, vs vehicle): not significantly altered
- IL-8 in BAL fluid (after reperfusion, vs vehicle): significantly reduced
- P-selectin in plasma (after reperfusion, vs vehicle): not significantly different
- VCAM-1 in plasma (after reperfusion, vs vehicle): not significantly different
- ZO-1 in plasma (after reperfusion, vs vehicle): significantly reduced
- ZO-2 in BAL fluid (after reperfusion, vs vehicle): not significantly different but trended lower
- ZO-2 in plasma (after reperfusion, vs vehicle): but not occludin (FIG. 23A) or ZO-2 (FIG. 23D) were significantly reduced
- claudin-5 in plasma (after reperfusion, vs vehicle): significantly reduced
- occludin in plasma (after reperfusion, vs vehicle): but not occludin (FIG. 23A) or ZO-2 (FIG. 23D) were significantly reduced
- ZO-1 in BAL fluid [2]: significantly reduced
- claudin-5 in BAL fluid [2]: significantly reduced
- occludin in BAL fluid [2]: significantly reduced
- P-selectin in BAL fluid (after reperfusion, vs vehicle, P=0.0075): significantly reduced
- ICAM-1 in BAL fluid [3]: No significant changes
- VCAM1 in BAL fluid [3]: No significant changes
- reduction of neutrophil infiltration (immunohistochemistry of lung sections, neutrophils per HPF) (compared to vehicle control, P<0.0001): 70%
- systemic arterial PaO2/FiO2 ratio (during reperfusion, vs vehicle): improved during reperfusion in the GSK-treated group, although this was not significant
- histologic score for polymorphonuclear neutrophils per high-powered field (PMNs/HPF) (left lower lobe after reperfusion, vs vehicle, P=0.028): significantly improved
- histologic composite lung injury score (left lower lobe after reperfusion, vs vehicle, P=0.041): significantly improved
- histologic score for alveolar edema (left lower lobe after reperfusion, vs vehicle, P=0.048): significantly improved
- average pulmonary venous pH (throughout reperfusion, vehicle 7.3±0.024, no significant difference): 7.3±0.020
- average pulmonary venous PaCO2 (throughout reperfusion, vehicle 60.1±2.11, no significant difference): 60.4±1.46 mmHg
